Patent US20240287071A1, “CLASS OF IMIDAZOLIDINOPYRIMIDONE COMPOUNDS AND USE THEREOF IN TREATMENT OF HSCLPP-MEDIATED DISEASES” (SICHUAN UNIVERSITY, priority 2021, published 2024)

Target: HsClpP (Homo sapiens, UniProt Q16740)
Assay: HsClpP enzyme hydrolysis of short peptide substrate AC-WLA-AMC
Settings: promoting hydrolysis of short peptide substrate by HsClpP, relative to blank control
Protocol: This study evaluated the regulatory activity of the compounds on HsClpP by examining the hydrolysis effects of HsClpP protein on the AC-WLA-AMC substrate . […] The small molecules and the HsClpP protein solution were added to a flat-bottomed black 96-well plate, with three replicate wells for each group. […] DMSO was used as a negative control instead of small molecules. The multiple of readings at different concentrations against the readings of DMSO group was recorded as an index for evaluation of hydrolysis activity. . . . GraphPad Prism was used to plot the obtained multiple values and calculate the EC50 values.

Sequence of HsClpP (Q16740 57-277): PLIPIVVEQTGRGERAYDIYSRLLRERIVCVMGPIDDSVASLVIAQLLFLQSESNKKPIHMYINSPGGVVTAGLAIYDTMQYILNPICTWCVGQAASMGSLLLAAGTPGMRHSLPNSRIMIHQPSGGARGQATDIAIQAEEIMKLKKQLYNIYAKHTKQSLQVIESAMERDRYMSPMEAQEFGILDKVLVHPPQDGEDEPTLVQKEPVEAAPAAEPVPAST

SMILES	Regulatory efficacy 10 μM	Regulatory efficacy 1 μM
CCN1CCn2c1nc(=O)c1c2CCN(Cc2ccccc2)C1 [Compound 3, 7-benzyl-3-ethyl-2,3,6,7,8,9-hexahydroimidazo[1,2-a]pyrido[3,4-e]pyrimidin-5(1H)-one]	+ (+ indicating that the increased efficacy is less than 50% of the blank control group)	+ (+ indicating that the increased efficacy is less than 50% of the blank control group)
CC(C)CCN1CCn2c1nc(=O)c1c2CCN(Cc2ccccc2)C1 [Compound 4, 7-benzyl-3-isopentyl-2,3,6,7,8,9-hexahydroimidazo[1,2-a]pyrido[3,4-e]pyrimidin-5(1H)-one]	+ +	+ +
O=c1nc2n(c3c1CN(Cc1ccccc1)CC3)CCN2c1ccccc1 [Compound 9, 7-benzyl-3-phenyl-2,3,6,7,8,9-hexahydroimidazo[1,2-a]pyrido[3,4-e]pyrimidin-5(1H)-one]	+ +	+ (+ indicating that the increased efficacy is less than 50% of the blank control group)
Cc1ccccc1CN1CCn2c1nc(=O)c1c2CCN(C(=O)OC(C)(C)C)C1 [Compound 27, 7-tert-butoxycarbonyl-3-(2-methylbenzyl)-2,3,6,7,8,9-hexahydroimidazo[1,2-a]pyrido[3,4-e]pyrimid in-5(1H)-one]	+ +	+ +
Cc1ccccc1CN1CCn2c1nc(=O)c1c2CCN(CC(C)C)C1 [Compound 29, 7-isobutyl-3-(2-methylbenzyl)-2,3,6,7,8,9-hexahydroimidazo[1,2-a]pyrido[3,4-e]pyrimidin-5(1H)-one]	+ (+ indicating that the increased efficacy is less than 50% of the blank control group)	+ (+ indicating that the increased efficacy is less than 50% of the blank control group)
Cc1ccccc1CN1CCn2c1nc(=O)c1c2CCN(CC2CC2)C1 [Compound 30]	+ (+ indicating that the increased efficacy is less than 50% of the blank control group)	+ (+ indicating that the increased efficacy is less than 50% of the blank control group)
Cc1ccccc1CN1CCn2c1nc(=O)c1c2CCN(C(=O)Cc2ccccc2)C1 [Compound 40, 3-(2-methylbenzyl)-7-(2-phenylacetyl)-2,3,6,7,8,9-hexahydroimidazo[1,2-a]pyrido[3,4-e]pyrimidin-5(1H)-one]	+ (+ indicating that the increased efficacy is less than 50% of the blank control group)	+ (+ indicating that the increased efficacy is less than 50% of the blank control group)
Cc1ccccc1CN1CCn2c1nc(=O)c1c2CCN(CCCCc2ccccc2)C1 [Compound 41, 3-(2-methylbenzyl)-7-(4-phenylbutyl)-2,3,6,7,8,9-hexahydroimidazo[1,2-a]pyrido[3,4-e]pyrimidin-5 (1H)-one]	+ (+ indicating that the increased efficacy is less than 50% of the blank control group)	+ (+ indicating that the increased efficacy is less than 50% of the blank control group)
Cc1ccccc1CN1CCn2c1nc(=O)c1c2CCN(c2nncs2)C1 [Compound 45, 3-(2-methylbenzyl)-7-(1,3,4-thiadiazol-2-yl)-2,3,6,7,8,9-hexahydroimidazo[1,2-a]pyrido[3,4-e]pyri midin-5(1H)-one]	+ (+ indicating that the increased efficacy is less than 50% of the blank control group)	+ (+ indicating that the increased efficacy is less than 50% of the blank control group)
Cc1cccc(CN2CCn3c2nc(=O)c2c3C(F)(F)CN(Cc3ccccc3)C2)c1 [Compound 48, 7-Benzyl-9,9-difluoro-3-(3-methylbenzyl)-2,3,6,7,8,9-hexahydroimidazo[1,2-a]pyrido[3,4-e]pyrimid in-5(1H)-one]	+ +	+ +
O=c1nc2n(c3c1CN(Cc1ccccc1)CC3(F)F)CCN2Cc1ccc(F)c(Br)c1 [Compound 49, 7-Benzyl-9,9-difluoro-3-(3-bromo-4-fluorobenzyl)-2,3,6,7,8,9-hexahydroimidazo[1,2-a]pyrido[3,4-e]pyrimidin-5(1H)-one]	+ +	+ +
N#Cc1cccc(CN2Cc3c(n4c(nc3=O)N(Cc3ccc(F)c(F)c3)CC4)C(F)(F)C2)c1 [Compound 50, 3-((3-(3,4-difluorobenzyl)-9,9-difluoro-5-oxo-2,3,6,7,8,9-hexahydroimidazo[1,2-a]pyrido[3,4-e]pyrimidin-7(6H)-yl)methyl)benzonitrile]	+ +	+ +

Now from value to molecule, other results behind:

Regulatory efficacy 10 μM	SMILES	Regulatory efficacy 1 μM
+ +	O=c1nc2n(c3c1CN(Cc1ccccc1)CC3)CCN2CCc1ccccc1 [Compound 10, 7-benzyl-3-(phenylethyl)-2,3,6,7,8,9-hexahydroimidazo[1,2-a]pyrido[3,4-e]pyrimidin-5(1H)-one]	+ +
+ +	O=c1nc2n(c3c1CN(Cc1ccccc1)CC3)CCN2Cc1cccnc1 [Compound 23, 7-benzyl-3-(3-pyridinylmethyl)-2,3,6,7,8,9-hexahydroimidazo[1,2-a]pyrido[3,4-e]pyrimidin-5(1H)-one]	+ (+ indicating that the increased efficacy is less than 50% of the blank control group)
+ +	O=c1nc2n(c3c1CN(Cc1ccccc1)CC3)CCN2Cc1ccncc1 [Compound 24, 7-benzyl-3-(4-pyridinylmethyl)-2,3,6,7,8,9-hexahydroimidazo[1,2-a]pyrido[3,4-e]pyrimidin-5(1H)-one]	+ (+ indicating that the increased efficacy is less than 50% of the blank control group)
+ +	O=c1nc2n(c3c1CN(Cc1ccccc1)CC3)CCN2Cc1ccco1 [Compound 25, 7-benzyl-3-(2-furfuryl)-2,3,6,7,8,9-hexahydroimidazo[1,2-a]pyrido[3,4-e]pyrimidin-5(1H)-one]	+ (+ indicating that the increased efficacy is less than 50% of the blank control group)
+ +	Cc1ccccc1CN1CCn2c1nc(=O)c1c2CCN(CC2CCCCC2)C1 [Compound 31, 7-cyclohexylmethyl-3-(2-methylbenzyl)-2,3,6,7,8,9-hexahydroimidazo[1,2-a]pyrido[3,4-e]pyrimidin-5(1H)-one]	+ (+ indicating that the increased efficacy is less than 50% of the blank control group)
+ +	Cc1ccc(CN2CCc3c(c(=O)nc4n3CCN4Cc3ccccc3C)C2)cc1 [Compound 33, 3-(2-methylbenzyl)-7-(4-methylbenzyl)-2,3,6,7,8,9-hexahydroimidazo[1,2-a]pyrido[3,4-e]pyrimidin-5(1H)-one]	+ +
+ +	Cc1ccccc1CN1CCn2c1nc(=O)c1c2CCN(Cc2ccccc2C#N)C1 [Compound 34, 2-((3-(2-methylbenzyl)-5-oxo-2,3,6,7,8,9-hexahydroimidazo[1,2-a]pyrido[3,4-e]pyrimidin-7(6H)-yl)methyl)benzonitrile]	+ +
+ +	Cc1ccccc1CN1CCn2c1nc(=O)c1c2CCN(Cc2ccc(F)c(F)c2)C1 [Compound 36, 7-(3,4-difluorobenzyl)-3-(2-methylbenzyl)-2,3,6,7,8,9-hexahydroimidazo[1,2-a]pyrido[3,4-e]pyrimidin-5(1H)-one]	+ +
+ +	Cc1ccccc1CN1CCn2c1nc(=O)c1c2CCN(Cc2ccc(F)cc2F)C1 [Compound 37, 7-(2,4-difluorobenzyl)-3-(2-methylbenzyl)-2,3,6,7,8,9-hexahydroimidazo[1,2-a]pyrido[3,4-e]pyrimidin-5(1H)-one]	+ (+ indicating that the increased efficacy is less than 50% of the blank control group)
+ +	Cc1ccccc1CN1CCn2c1nc(=O)c1c2CCN(Cc2ccc(F)cc2)C1 [Compound 38, 7-(4-fluorobenzyl)-3-(2-methylbenzyl)-2,3,6,7,8,9-hexahydroimidazo[1,2-a]pyrido[3,4-e]pyrimidin-5(1H)-one]	+ +
+ +	Cc1ccccc1CN1CCn2c1nc(=O)c1c2CCN(CCc2ccccc2)C1 [Compound 42, 3-(2-methylbenzyl)-7-phenethyl-2,3,6,7,8,9-hexahydroimidazo[1,2-a]pyrido[3,4-e]pyrimidin-5(1H)-one]	+ (+ indicating that the increased efficacy is less than 50% of the blank control group)
+ +	Cc1ccccc1CN1CCn2c1nc(=O)c1c2CCN(Cc2cccnc2)C1 [Compound 43, 3-(2-methylbenzyl)-7-(pyridin-3-methyl)-2,3,6,7,8,9-hexahydroimidazo[1,2-a]pyrido[3,4-e]pyrimidi n-5(1H)-one]	+ (+ indicating that the increased efficacy is less than 50% of the blank control group)
+ +	Cc1ccccc1CN1CCn2c1nc(=O)c1c2CCN(Cc2ccncc2)C1 [Compound 44, 3-(2-methylbenzyl)-7-(pyridin-4-methyl)-2,3,6,7,8,9-hexahydroimidazo[1,2-a]pyrido[3,4-e]pyrimidi n-5(1H)-one]	+ (+ indicating that the increased efficacy is less than 50% of the blank control group)
+ +	Cc1ccccc1CN1CCCn2c1nc(=O)c1c2CCN(Cc2ccccc2)C1 [Compound 46, 3-Benzyl-7-(2-methylbenzyl)-1,2,3,4,7,8,9, 10-octahydro-5H-pyrido[3,4-e]pyrimido[1,2-a] pyrimidin-5-one]	+ (+ indicating that the increased efficacy is less than 50% of the blank control group)
+ +	Cc1ccccc1CN1CCn2c1nc(=O)c1c2C(F)(F)CN(Cc2ccccc2)C1 [Compound 47, 7-Benzyl-9,9-difluoro-3-(2-methylbenzyl)-2,3,6,7,8,9-hexahydroimidazo[1,2-a]pyrido[3,4-e]pyrimid in-5(1H)-one]	+ +
